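Interpolation was linear, between the two tested concentrations surrounding the appropriate level; five concentrations were tested over 48 hours in 96-well plates. GI50 = concentration required for 50% inhibition of growth.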 Activity calls are given as the source filed them. No stated cut-off is given here; in the data, active = GI50 up to about 1.1 µM and inactive = higher.
What was measured:
Experiment in all cases: inhibition of tumour cell growth, NCI panel, 48 h
786-0 = system: 786-0
A498 = system: A498
A549 = system: A549
ACHN = system: ACHN
BT-549 = system: BT-549
CAKI-1 = system: CAKI-1
CCRF-CEM = system: CCRF-CEM
COLO 205 = system: COLO 205
DU-145 = system: DU-145
EKVX = system: EKVX
HCC 2998 = system: HCC 2998
HCT-116 = system: HCT-116
HCT-15 = system: HCT-15
HL-60 = system: HL-60
HOP-62 = system: HOP-62
HOP-92 = system: HOP-92
HT-29 = system: HT-29
Hs-578T = system: Hs-578T
IGROV-1 = system: IGROV-1
K562 = system: K562
KM12 = system: KM12
LOX IMVI = system: LOX IMVI
M14 = system: M14
MCF7 = system: MCF7
MDA-MB-231 = system: MDA-MB-231
MDA-MB-435 = system: MDA-MB-435
MDA-N = system: MDA-N
MOLT-4 = system: MOLT-4
Malme-3M = system: Malme-3M
NCI-H226 = system: NCI-H226
NCI-H23 = system: NCI-H23
NCI-H460 = system: NCI-H460
NCI-H522 = system: NCI-H522
NCI/ADR-RES = system: NCI/ADR-RES
OVCAR-3 = system: OVCAR-3
OVCAR-5 = system: OVCAR-5
OVCAR-8 = system: OVCAR-8
PC-3 = system: PC-3
RPMI-8226 = system: RPMI-8226
RXF 393 = system: RXF 393
SF-268 = system: SF-268
SF-295 = system: SF-295
SF-539 = system: SF-539
SK-MEL-28 = system: SK-MEL-28
SK-MEL-2 = system: SK-MEL-2
SK-MEL-5 = system: SK-MEL-5
SK-OV-3 = system: SK-OV-3
SN12C = system: SN12C
SNB-19 = system: SNB-19
SNB-75 = system: SNB-75
SR = system: SR
SW-620 = system: SW-620
T47D = system: T47D
TK-10 = system: TK-10
U-251 = system: U-251
UACC-257 = system: UACC-257
UACC-62 = system: UACC-62
UO-31 = system: UO-31
OVCAR-4 = system: OVCAR-4

Structure (SMILES): Oc1ccc(SCc2cc(O)c(O)c(O)c2)cc1
- GI50 (786-0): 37 µM (inactive)
- GI50 (A498): 40.5 µM (inactive)
- GI50 (A549): 49.5 µM (inactive)
- GI50 (ACHN): 47.9 µM (inactive)
- GI50 (BT-549): 25.6 µM (inactive)
- GI50 (CAKI-1): 39.6 µM (inactive)
- GI50 (CCRF-CEM): 19.3 µM (inactive)
- GI50 (COLO 205): 18.7 µM (inactive)
- GI50 (DU-145): 56.5 µM (inactive)
- GI50 (EKVX): > 100 µM (inactive)
- GI50 (HCC 2998): > 10 µM (inactive)
- GI50 (HCT-116): 17.1 µM (inactive)
- GI50 (HCT-15): 39.9 µM
- GI50 (HL-60): 34.4 µM (inactive)
- GI50 (HOP-62): 29 µM (inactive)
- GI50 (HOP-92): > 100 µM (inactive)
- GI50 (HT-29): 23.5 µM (inactive)
- GI50 (Hs-578T): 77.8 µM (inactive)
- GI50 (IGROV-1): 20.5 µM (inactive)
- GI50 (K562): 13.2 µM (inactive)
- GI50 (KM12): 20.3 µM (inactive)
- GI50 (LOX IMVI): 35.9 µM (inactive)
- GI50 (M14): 17.9 µM (inactive)
- GI50 (MCF7): 20.4 µM (inactive)
- GI50 (MDA-MB-231): 36.4 µM (inactive)
- GI50 (MDA-MB-435): 22.4 µM (inactive)
- GI50 (MDA-N): > 10 µM (inactive)
- GI50 (MOLT-4): 27 µM (inactive)
- GI50 (Malme-3M): 61.5 µM (inactive)
- GI50 (NCI-H226): 23.7 µM (inactive)
- GI50 (NCI-H23): 41.4 µM (inactive)
- GI50 (NCI-H460): 19.1 µM (inactive)
- GI50 (NCI-H522): 22 µM (inactive)
- GI50 (NCI/ADR-RES): 19.7 µM (inactive)
- GI50 (OVCAR-3): 39.4 µM (inactive)
- GI50 (OVCAR-5): 22.4 µM (inactive)
- GI50 (OVCAR-8): 21.6 µM (inactive)
- GI50 (PC-3): 40.3 µM (inactive)
- GI50 (RPMI-8226): 26.7 µM (inactive)
- GI50 (RXF 393): 89.3 µM (inactive)
- GI50 (SF-268): > 100 µM (inactive)
- GI50 (SF-295): 15.8 µM (inactive)
- GI50 (SF-539): 82.8 µM (inactive)
- GI50 (SK-MEL-28): 92.9 µM (inactive)
- GI50 (SK-MEL-2): 26.1 µM (inactive)
- GI50 (SK-MEL-5): 18 µM (inactive)
- GI50 (SK-OV-3): 65.9 µM (inactive)
- GI50 (SN12C): 26.4 µM (inactive)
- GI50 (SNB-19): 59.4 µM (inactive)
- GI50 (SNB-75): 46.5 µM (inactive)
- GI50 (SR): 25.5 µM (inactive)
- GI50 (SW-620): 36.5 µM (inactive)
- GI50 (T47D): > 100 µM (inactive)
- GI50 (TK-10): > 100 µM (inactive)
- GI50 (U-251): 37.1 µM (inactive)
- GI50 (UACC-257): > 100 µM (inactive)
- GI50 (UACC-62): 16.9 µM (inactive)
- GI50 (UO-31): 24.8 µM (inactive)

Structure (SMILES): N#C[C@H](c1nc2ccccc2[nH]1)c1nc2ccccc2nc1Cl
- GI50 (786-0): 7.62 µM (inactive)
- GI50 (A498): 26.2 µM (inactive)
- GI50 (A549): > 54.5 µM (inactive)
- GI50 (ACHN): > 23.1 µM (inactive)
- GI50 (BT-549): > 28.2 µM (inactive)
- GI50 (CAKI-1): 4.68 µM (inactive)
- GI50 (CCRF-CEM): 2.64 µM (inactive)
- GI50 (COLO 205): 12.8 µM (inactive)
- GI50 (DU-145): 1.78 µM (inactive)
- GI50 (EKVX): 9.68 µM (inactive)
- GI50 (HCC 2998): > 40.6 µM (inactive)
- GI50 (HCT-116): 6.25 µM (inactive)
- GI50 (HL-60): 0.881 µM (active)
- GI50 (HOP-92): > 29 µM (inactive)
- GI50 (HT-29): 5.55 µM (inactive)
- GI50 (Hs-578T): 2.05 µM (inactive)
- GI50 (IGROV-1): 11.2 µM (inactive)
- GI50 (K562): 4.2 µM (inactive)
- GI50 (KM12): 4.35 µM (inactive)
- GI50 (LOX IMVI): 3 µM (inactive)
- GI50 (M14): > 23.4 µM (inactive)
- GI50 (MCF7): > 26 µM (inactive)
- GI50 (MDA-MB-231): 12.7 µM (inactive)
- GI50 (MDA-MB-435): 14.3 µM (inactive)
- GI50 (MDA-N): 16.7 µM (inactive)
- GI50 (MOLT-4): 4.04 µM (inactive)
- GI50 (Malme-3M): 12.4 µM (inactive)
- GI50 (NCI-H226): 22.1 µM (inactive)
- GI50 (NCI-H23): > 34.3 µM (inactive)
- GI50 (NCI-H460): > 25.1 µM (inactive)
- GI50 (NCI-H522): 2.85 µM (inactive)
- GI50 (NCI/ADR-RES): 29.8 µM (inactive)
- GI50 (OVCAR-3): > 100 µM (inactive)
- GI50 (OVCAR-4): > 35.2 µM (inactive)
- GI50 (OVCAR-5): > 44.3 µM (inactive)
- GI50 (OVCAR-8): 12.6 µM (inactive)
- GI50 (PC-3): > 25.9 µM (inactive)
- GI50 (RPMI-8226): 8.93 µM (inactive)
- GI50 (RXF 393): > 100 µM (inactive)
- GI50 (SF-295): > 61.4 µM (inactive)
- GI50 (SF-539): > 100 µM (inactive)
- GI50 (SK-MEL-28): 20.2 µM (inactive)
- GI50 (SK-MEL-5): 5.98 µM (inactive)
- GI50 (SK-OV-3): > 53.8 µM (inactive)
- GI50 (SN12C): 12.7 µM (inactive)
- GI50 (SNB-19): 19.9 µM (inactive)
- GI50 (SNB-75): 12.9 µM (inactive)
- GI50 (SR): 3.09 µM (inactive)
- GI50 (SW-620): 6.08 µM (inactive)
- GI50 (T47D): 3.96 µM (inactive)
- GI50 (TK-10): 14 µM (inactive)
- GI50 (U-251): 15.8 µM (inactive)
- GI50 (UACC-257): > 38.7 µM (inactive)
- GI50 (UO-31): > 47 µM (inactive)

Structure (SMILES): COc1ccc(C2=CC(C(C)=C(C(N)=O)C(N)=O)C=C(c3ccc(Br)cc3)C2)c(OC)c1 (centres undefined)
- GI50 (786-0): > 100 µM (inactive)
- GI50 (A498): > 100 µM (inactive)
- GI50 (A549): > 100 µM (inactive)
- GI50 (ACHN): > 100 µM (inactive)
- GI50 (BT-549): > 100 µM (inactive)
- GI50 (CAKI-1): > 100 µM (inactive)
- GI50 (CCRF-CEM): > 100 µM (inactive)
- GI50 (COLO 205): > 100 µM (inactive)
- GI50 (DU-145): > 100 µM (inactive)
- GI50 (EKVX): 44.2 µM (inactive)
- GI50 (HCC 2998): > 100 µM (inactive)
- GI50 (HCT-116): > 100 µM (inactive)
- GI50 (HCT-15): > 100 µM
- GI50 (HL-60): > 100 µM (inactive)
- GI50 (HOP-62): > 100 µM (inactive)
- GI50 (HOP-92): 31.8 µM (inactive)
- GI50 (HT-29): > 100 µM (inactive)
- GI50 (Hs-578T): 63.1 µM (inactive)
- GI50 (IGROV-1): 94.6 µM (inactive)
- GI50 (K562): > 100 µM (inactive)
- GI50 (KM12): > 100 µM (inactive)
- GI50 (LOX IMVI): > 100 µM (inactive)
- GI50 (M14): > 100 µM (inactive)
- GI50 (MCF7): > 100 µM (inactive)
- GI50 (MDA-MB-231): > 100 µM (inactive)
- GI50 (MDA-MB-435): > 100 µM (inactive)
- GI50 (MDA-N): > 100 µM (inactive)
- GI50 (MOLT-4): > 100 µM (inactive)
- GI50 (NCI-H226): > 100 µM (inactive)
- GI50 (NCI-H23): > 100 µM (inactive)
- GI50 (NCI-H460): > 100 µM (inactive)
- GI50 (NCI-H522): > 100 µM (inactive)
- GI50 (NCI/ADR-RES): > 100 µM (inactive)
- GI50 (OVCAR-3): > 100 µM (inactive)
- GI50 (OVCAR-4): > 100 µM (inactive)
- GI50 (OVCAR-5): > 100 µM (inactive)
- GI50 (OVCAR-8): > 100 µM (inactive)
- GI50 (PC-3): 50.5 µM (inactive)
- GI50 (RPMI-8226): > 100 µM (inactive)
- GI50 (RXF 393): > 100 µM (inactive)
- GI50 (SF-268): > 100 µM (inactive)
- GI50 (SF-295): > 100 µM (inactive)
- GI50 (SK-MEL-28): > 100 µM (inactive)
- GI50 (SK-MEL-2): > 100 µM (inactive)
- GI50 (SK-MEL-5): > 100 µM (inactive)
- GI50 (SK-OV-3): > 100 µM (inactive)
- GI50 (SN12C): > 100 µM (inactive)
- GI50 (SNB-19): > 100 µM (inactive)
- GI50 (SNB-75): 66.1 µM (inactive)
- GI50 (SR): > 100 µM (inactive)
- GI50 (SW-620): > 100 µM (inactive)
- GI50 (T47D): 39.1 µM (inactive)
- GI50 (TK-10): > 100 µM (inactive)
- GI50 (U-251): > 100 µM (inactive)
- GI50 (UACC-257): > 100 µM (inactive)
- GI50 (UACC-62): > 100 µM (inactive)
- GI50 (UO-31): 39.9 µM (inactive)
